Converted amounts (≈) assume the structure as drawn. Counter-ions that a name gives are not always drawn.
Tests used:
HT29 cells = experiment: HT29 cell killing by BCNU after drug pretreatment, colony-forming assay; type: cell-based; details: for HT29 cell killing by BCNU after prodrug without β-glucuronidase: 5 hr prodrug, no β-glucuronidase, then two-hour 40 μM BCNU; for HT29 cell killing by BCNU after prodrug without β-glucuronidase / HT29 cell killing by BCNU after prodrug with β-glucuronidase: FIG. 3; for HT29 cell killing by BCNU after prodrug with β-glucuronidase: bovine liver β-glucuronidase 20 units/mL of medium, 7 or 14 hr (1), 14 hr (2), then 2 hr 40 μM BCNU
Procedure: HT29 cells were grown in RPMI 1640 medium in the presence of 10% fetal bovine serum. The effect of alkyltransferase inactivators on the sensitivity of cells to BCNU was determined using a colony-forming assay. Cells were plated at a density of 10^6 in 25 cm^2 flasks and 24 h later were incubated with different concentrations of prodrugs for the time indicated before exposure to 40 μM BCNU for 2 hr. For experiments involving β-glucuronidase, the bovine liver protein was added to the cell cultures at 20 units/mL of medium and incubated along with the prodrug. BCNU was dissolved in absolute ethanol at a concentration of 8 mM. It was diluted with the same volume of ice-cold phosphate-buffered saline, and was immediately administered to cells. After two hr, the medium was replaced with fresh medium and the cells were left to grow for an additional 16-18 h. The cells were then replated at densities of 250 cells per 25 cm^2 flask and grown for 8 days until discrete colonies had formed. The colonies were washed with 0.9% saline solution, stained with 0.5% crystal violet in ethanol, and counted. The plating efficiency of cells not treated with drugs was about 50%.

Solubility in water = type: physicochemical; details: for solubility: water
[1] = Stability under acidic conditions; type: physicochemical
E. coli β-glucuronidase = target: T1, E. coli β-glucuronidase (Escherichia coli, UniProt P05804); experiment: Enzymatic hydrolysis of prodrugs by E. coli β-glucuronidase in MOPS buffer; type: biochemical; details: 0.2 unit/mL E. coli enzyme, FIG. 1B
T1 construct: purchased Sigma type IX-A
T1 sequence (P05804 whole entry): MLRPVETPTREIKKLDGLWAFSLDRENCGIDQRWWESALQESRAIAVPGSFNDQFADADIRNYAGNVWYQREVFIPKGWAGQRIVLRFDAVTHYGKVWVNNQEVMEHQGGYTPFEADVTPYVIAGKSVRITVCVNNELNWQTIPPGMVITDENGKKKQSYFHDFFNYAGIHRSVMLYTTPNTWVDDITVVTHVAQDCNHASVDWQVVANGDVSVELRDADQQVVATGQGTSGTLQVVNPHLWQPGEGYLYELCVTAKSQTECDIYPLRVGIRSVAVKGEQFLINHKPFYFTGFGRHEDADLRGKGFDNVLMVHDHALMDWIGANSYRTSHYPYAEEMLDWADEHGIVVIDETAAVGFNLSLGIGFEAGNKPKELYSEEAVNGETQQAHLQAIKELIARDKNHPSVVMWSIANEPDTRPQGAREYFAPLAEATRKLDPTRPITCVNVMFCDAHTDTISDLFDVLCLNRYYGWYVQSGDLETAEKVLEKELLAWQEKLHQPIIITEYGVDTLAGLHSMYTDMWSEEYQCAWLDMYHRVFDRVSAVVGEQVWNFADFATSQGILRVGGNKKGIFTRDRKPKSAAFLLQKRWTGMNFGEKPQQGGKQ
Procedure: (§1) The enzymatic hydrolysis of the prodrugs was investigated with both E. coli and bovine liver β-glucuronidase in MOPS buffer at pH 7.0. Prodrugs and p-nitrobenzyl alcohol (HPLC internal standard) were dissolved in the MOPS buffer (pH 7.0) at 37° C. Enzymatic cleavage was initiated by adding 0.2 Fishman units of E. coli β-glucuronidase (Sigma type IX-A) (42.8 units/mg of protein) or 10 Fishman units of bovine liver β-glucuronidase (Sigma type B-10) (10.2 units/mg of protein) to the incubation buffer. Aliquots (100 μL) of the reaction mixture were withdrawn at various times and were mixed with 100 μL of acetonitrile/0.1 M TEAA (6:4) to quench the enzymatic reaction. Prodrug and product concentrations were determined by HPLC. For determination of enzyme kinetic parameters, prodrug solutions at concentrations between 5 and 300 μM were incubated with a fixed amount of enzyme. Aliquots were withdrawn at time intervals varying from 1 to 20 min and the reactions were quenched as described above. Initial reaction velocities were determined at each substrate concentration. Non-linear regression methods were used to determine KM and Vmax values. Data were processed with Prism 3.0 software.

[2] = target: T2, human O^6-alkylguanine-DNA alkyltransferase (Homo sapiens, UniProt P16455); experiment: Inactivation of purified recombinant human alkyltransferase (AGT) in vitro, [3H]-methylated DNA substrate; type: biochemical; details: for IC50: absence of β-glucuronidase, 30 min at 37° C., FIG. 2, read-out: inactivation of human AGT: concentration up to which inactive; for alkyltransferase inactivation in the presence of bovine liver β-glucuronidase: incubation with bovine liver β-glucuronidase (20 or 200 units/mL) for 30 min, FIG. 2A/2B
T2 sequence (P16455 1-207): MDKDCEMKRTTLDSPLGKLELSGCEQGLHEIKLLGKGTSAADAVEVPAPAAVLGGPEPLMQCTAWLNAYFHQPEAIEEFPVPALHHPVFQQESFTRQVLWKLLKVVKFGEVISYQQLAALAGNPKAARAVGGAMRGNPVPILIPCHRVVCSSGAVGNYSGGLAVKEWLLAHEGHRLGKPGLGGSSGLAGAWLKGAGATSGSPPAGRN
Procedure: Purified recombinant human alkyltransferase was incubated with different concentrations of prodrugs in 0.5 mL of reaction buffer (50 mM Tris-HCl, pH 7.6, 0.1 mM EDTA, 5.0 mM dithiothreitol) containing 50 μg of hemocyanin for 30 min at 37° C. For experiments involving β-glucuronidase, the bovine liver protein, prodrugs and alkyltransferase were incubated together in the above hemocyanin-containing buffer for 30 min at 37° C. The remaining alkyltransferase activity was determined after incubation with a [^3H]-methylated calf thymus DNA substrate for 30 min at 37° C. by measuring the [^3H]-methylated methylated protein formed, which was collected on nitrocellulose filters. The results were expressed as the percentage of the alkyltransferase activity remaining.

[3] = Stability (first-order hydrolysis) of prodrugs in aqueous buffers at 37° C., HPLC; type: physicochemical; details: for Observed first order rate constant for hydrolysis, kTris: 50 mM Tris-HCl (pH 7.5), 5 mM dithiothreitol, 0.1 mM EDTA; for Observed first order rate constant for hydrolysis, kTris / Observed first order rate constant for hydrolysis, kMOPS / Observed first order rate constant for hydrolysis, kDulbecco: 37° C.; for Observed first order rate constant for hydrolysis, kMOPS: 50 mM morpholinopropane sulfonic acid, pH 7.0, 0.01% NaCl; for Observed first order rate constant for hydrolysis, kPBS: Phosphate buffered saline, pH 7.2, 37° C.; for Observed first order rate constant for hydrolysis, kDulbecco: modified Dulbecco's medium
Procedure: Prodrug purity of the prodrugs was determined by HPLC on a Hewlett-Packard LC 1090 Series II system equipped with a Phenomenex 250×4 mm column (5 μm particle size) eluted isocratically at 1 mL/min with acetonitrile/0.1 M triethylammonium acetate (TEAA), pH 7.0, (3:7). Aliquots (100 μL) from prodrug solutions were withdrawn and diluted with 100 μL of a solution of p-nitrobenzyl alcohol (an internal standard) in acetonitrile/0.1 M TEAA (6:4). UV detection was at 254 and 280 nm. Retention times for 1, 2, O^6-benzylguanine, O^6-benzyl-2′-deoxyguanosine and p-nitrobenzyl alcohol were 5.20, 4.97, 7.13, 7.18 and 8.64 min, respectively. All determinations were carried out in duplicate or triplicate.
The stability of the prodrugs was determined in phosphate buffered saline (pH 7.2) (Life Techologie, Inc), a Tris buffer containing 50 mM Tris-HCl (pH 7.5) (Life Technologies, Inc), 5 mM dithiothreitol and 0.1 mM EDTA, a MOPS buffer (pH 7.0) containing 50 mM morpholinopropane sulfonic acid, […] Dulbecco's medium prepared by combining 400 mL of Dulbecco's medium with 7 mL of 7.5% NanCO3, 4 mL of 15 mM glutamine, 2 mL gentamicin and 40 mL of fetal calf serum. Solutions were incubated at 37° C. and prodrug concentrations were analyzed by HPLC at various times as indicated above.
Rate constants for the first-order disappearance of prodrugs were estimated from semi-log plots of the concentration of prodrug as a function of time. The spontaneous rate of liberation, for example, in aqueous solutions, of the AGT inactivator is much lower than the rate for β-glucuronidase catalyzed liberation, for example, about 10 times less, and preferably 100 times less. The spontaneous rate of liberation of the AGT inactivator from the prodrug is low, e.g., about 0.2 to about 0.5% by weight per hour.

[4] = target: T3, bovine liver β-glucuronidase (Bos taurus, UniProt A3KMY8); experiment: Enzymatic hydrolysis of prodrugs by bovine liver β-glucuronidase in MOPS buffer; type: biochemical; details: 10 units/mL bovine liver enzyme, FIG. 1A
T3 construct: bovine liver β-glucuronidase (Sigma type B-10) (10.2 units/mg of protein); purchased Sigma type B-10; host or cells: bovine liver
T3 sequence (A3KMY8 1-652): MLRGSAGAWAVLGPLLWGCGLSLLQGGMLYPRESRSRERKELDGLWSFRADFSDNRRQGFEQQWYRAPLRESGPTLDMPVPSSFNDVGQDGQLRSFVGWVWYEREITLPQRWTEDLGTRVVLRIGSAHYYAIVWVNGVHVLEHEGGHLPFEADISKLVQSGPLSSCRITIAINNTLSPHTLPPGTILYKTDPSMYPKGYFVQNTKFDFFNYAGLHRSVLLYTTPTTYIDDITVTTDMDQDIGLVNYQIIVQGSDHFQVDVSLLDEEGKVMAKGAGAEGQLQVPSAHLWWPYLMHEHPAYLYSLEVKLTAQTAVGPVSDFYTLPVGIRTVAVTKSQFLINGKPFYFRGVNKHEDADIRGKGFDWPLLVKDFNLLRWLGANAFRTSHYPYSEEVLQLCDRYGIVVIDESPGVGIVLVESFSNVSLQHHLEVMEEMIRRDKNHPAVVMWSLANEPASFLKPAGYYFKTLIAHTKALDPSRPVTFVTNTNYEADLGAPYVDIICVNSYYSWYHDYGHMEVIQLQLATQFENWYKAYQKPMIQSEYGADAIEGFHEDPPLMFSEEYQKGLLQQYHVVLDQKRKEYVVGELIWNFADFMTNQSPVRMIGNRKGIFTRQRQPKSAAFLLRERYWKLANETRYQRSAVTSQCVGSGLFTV
Procedure: as §1

SMILES | ED90 for HT29 cell killing by 40 μM BCNU following a 2-hr incubation with drug (HT29 cells) | solubility (Solubility in water) [mg/mL] | stability under acidic conditions compared with O^6-benzylguanine [1] | fold more water soluble than O^6-benzylguanine (Solubility in water; relative to O^6-benzylguanine) | hydrolysis by the E. coli enzyme (prodrug disappearance) (E. coli β-glucuronidase) | HT29 cell killing by BCNU after prodrug without β-glucuronidase (HT29 cells) | HT29 cell killing by BCNU after prodrug with β-glucuronidase (HT29 cells) | IC50 [2] [µM] | alkyltransferase inactivation in the presence of bovine liver β-glucuronidase [2] | Observed first order rate constant for hydrolysis, kTris [3] [min⁻¹] | Observed first order rate constant for hydrolysis, kMOPS [3] [min⁻¹] | Observed first order rate constant for hydrolysis, kPBS [3] [min⁻¹] | average half-time for decomposition ([3]; aqueous buffers of Table 1) [days] | Observed first order rate constant for hydrolysis, kDulbecco [3] [s⁻¹] | hydrolysis by the bovine liver enzyme (prodrug disappearance) [4]
NCc1ccc(COc2nc(N)nc3[nH]cnc23)cc1 [Compound 24, O^6-(4-Aminomethylbenzyl)guanine] | >>5 μM | > 100 |  |  |  |  |  |  |  |  |  |  |  |  | 
NCc1cccc(COc2nc(N)nc3nc[nH]c23)c1 [Compound 25, O^6-(3-Aminomethylbenzyl)guanine] | 1.75 µM | > 100 | far more stable | at least 700 × |  |  |  |  |  |  |  |  |  |  | 
Nc1nc(OCc2ccccc2)c2nc[nH]c2n1 [O^6-benzylguanine, reference compound] | 0.75 µM | 0.1 (≈ 0.415 mM) |  |  |  |  |  |  |  |  |  |  |  |  | 
O=C(Nc1nc(OCc2ccccc2)c2nc[nH]c2n1)OCc1ccc(O[C@@H]2O[C@H](C(=O)O)[C@@H](O)[C@H](O)[C@H]2O)c([N+](=O)[O-])c1 [Prodrug 1, O^6-Benzyl-N-[[[[4′-[(-β-D-glucopyranuronosyl)oxy]-3′-nitrophenyl]methyl]oxy]carbonyl]guanine, monosodium salt] |  |  |  |  | rapid disappearance | quite resistant to killing | greatly sensitized to killing by BCNU | > 50 | efficient alkyltransferase inactivation | 4.06e-06 | 3.77e-06 | 3.86e-06 | ~100 | 7.15e-08 | rapid disappearance
O=C(Nc1nc(OCc2ccccc2)c2ncn([C@H]3C[C@H](O)[C@@H](CO)O3)c2n1)OCc1ccc(O[C@@H]2O[C@H](C(=O)O)[C@@H](O)[C@H](O)[C@H]2O)c([N+](=O)[O-])c1 [Prodrug 2, O^6-Benzyl-N^2-[[[[4″-[(β-D-glucopyranuronosyl)oxy]-3″-nitrophenyl]methyl]oxy]carbonyl]-2′-deoxyguanosine, monosodium salt] |  |  |  |  | rapid disappearance | quite resistant to killing | much greater cell killing by BCNU | > 50 | efficient alkyltransferase inactivation | 1.55e-07 | 1.88e-07 | 6.46e-07 |  | 7.8e-09 | rapid disappearance

From patent US7825096B2, “O6-alkylguanine-DNA alkyltransferase inactivators and beta-glucuronidase cleavable prodrugs” (The United States of America as represented by the …, priority 2004, dated 2010)
